From patent publication US10500261B2 (priority 2014, dated 2019)
Entries after “also recorded” stand apart in the source; their conditions may differ.

How the values were obtained:
[1] = system: HS4 CPS conjugate antisera; assay type: binding, rabbit
[2] = system: HS23/36 CPS conjugate antisera; assay type: binding, rabbit
[3] = system: HS1 CPS conjugate antisera; assay type: binding, mouse
[4] = system: HS3 CPS conjugate antisera; assay type: binding, mouse

COc1ccc(O[C@H]2O[C@H](COP(N)(=O)OC)[C@H](O)[C@H](O)[C@H]2O)cc1 (stereo partly drawn) [MeOPN→6-α-D-Galp-(1→OMP, 4-Methoxyphenyl 6-O-methyl-phosphoramidate-α-D-galactopyranoside]
recognition by HS4 CPS-CRM197 conjugate antiserum [1]: elicited a response equivalent to anti-HS23/36 CRM197 conjugate; also recorded: strongly recognized
recognition by HS23/36 CPS-CRM197 conjugate antiserum [2]: recognized; also recorded: strongly recognized; also recorded: detected
recognition by HS1 CPS-CRM197 conjugate antiserum [3]: reacted to MeOPN-6-Gal, although to a somewhat lesser extent; also recorded: weaker intensity
recognition by HS3 CPS-CRM197 conjugate antiserum [4]: did not react

COc1ccc(O[C@H]2O[C@H](CO)[C@H](O)[C@H](O)[C@H]2O)cc1 [α-D-Gal-(1-OMP, 4-methoxyphenyl-α-D-galactopyranoside, reference compound]
recognition by HS23/36 CPS-CRM197 conjugate antiserum [2]: No reaction was observed
